Experimental findings from ChEMBL document CHEMBL1909046, “DrugMatrix in vitro pharmacology data” are described below.

Data set [1] deals with C-C chemokine receptor type 5 (Homo sapiens, UniProt P51681). The data set is classed as cell membranes, HEK293, Membrane. The settings on record: hek293.
Data set [2] in a line: DRUGMATRIX: beta-Lactamase enzyme inhibition (substrate: Nitrocefin). More on the design: species or system Bacillus cereus. Conditions: Not Active = under 50% inhibition at 10 µM.
The target in a further data set is T1, Cytochrome P450 2A6 (Homo sapiens, UniProt P11509). Note: in other assays of this panel Not Active means under 50% inhibition at 10 µM.
T1 sequence (P11509 whole entry): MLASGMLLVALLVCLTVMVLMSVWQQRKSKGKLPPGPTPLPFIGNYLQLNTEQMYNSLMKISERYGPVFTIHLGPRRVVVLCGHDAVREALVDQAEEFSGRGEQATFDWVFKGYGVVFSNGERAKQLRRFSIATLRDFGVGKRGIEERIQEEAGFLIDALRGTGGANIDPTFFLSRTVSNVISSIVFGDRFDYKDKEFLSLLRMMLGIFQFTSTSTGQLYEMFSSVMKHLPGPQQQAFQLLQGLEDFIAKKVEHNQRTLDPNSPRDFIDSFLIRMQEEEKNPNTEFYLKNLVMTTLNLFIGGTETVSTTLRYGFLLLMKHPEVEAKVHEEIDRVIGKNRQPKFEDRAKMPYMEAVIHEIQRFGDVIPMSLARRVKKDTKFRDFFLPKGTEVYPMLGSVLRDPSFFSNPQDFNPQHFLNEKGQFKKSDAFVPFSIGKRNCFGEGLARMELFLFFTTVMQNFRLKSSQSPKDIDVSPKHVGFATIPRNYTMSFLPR
The settings on record: bti-tn-5b1-4.

Data set [3] in a line: DRUGMATRIX: Interleukin IL-1 radioligand binding (ligand: [125I] interleukin 1beta). Format: cell membranes, Membrane. The settings on record: nih3t3; Not Active = under 50% inhibition at 10 µM.
Data set [4] concerns the target Matrix metalloproteinase-9 (Homo sapiens, UniProt P14780). Format: cell-based.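 Note: inhibition of isolated MMP-9 enzyme activity toward a synthetic peptide substrate, from the DrugMatrix protease screening panel; in other assays of this panel Not Active means under 50% inhibition at 10 µM.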
For data set [5], the target named is T2, Alpha-2A adrenergic receptor (Homo sapiens, UniProt P08913). Note: in other assays of this panel Not Active means under 50% inhibition at 10 µM.
T2 sequence (P08913 whole entry): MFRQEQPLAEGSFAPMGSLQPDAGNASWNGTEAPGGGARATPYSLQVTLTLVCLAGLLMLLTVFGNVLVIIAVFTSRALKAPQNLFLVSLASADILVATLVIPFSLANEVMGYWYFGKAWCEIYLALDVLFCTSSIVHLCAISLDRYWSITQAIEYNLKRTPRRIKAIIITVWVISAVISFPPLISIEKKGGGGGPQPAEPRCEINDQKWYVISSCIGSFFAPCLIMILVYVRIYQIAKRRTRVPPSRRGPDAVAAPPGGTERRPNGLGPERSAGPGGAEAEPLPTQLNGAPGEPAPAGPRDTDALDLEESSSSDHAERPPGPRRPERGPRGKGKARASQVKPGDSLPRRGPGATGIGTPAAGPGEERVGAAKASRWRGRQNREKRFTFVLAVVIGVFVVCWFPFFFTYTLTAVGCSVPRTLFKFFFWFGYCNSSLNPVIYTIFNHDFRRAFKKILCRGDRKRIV
Format: cell membranes, Sf9, Membrane. Conditions: sf9.

The target of a further data set is T3, Caspase-1 (Homo sapiens, UniProt P29466).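 Note: Caspase-1 enzyme inhibition assay with a peptide substrate; in other assays of this panel Not Active means under 50% inhibition at 10 µM.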
T3 sequence (P29466 whole entry): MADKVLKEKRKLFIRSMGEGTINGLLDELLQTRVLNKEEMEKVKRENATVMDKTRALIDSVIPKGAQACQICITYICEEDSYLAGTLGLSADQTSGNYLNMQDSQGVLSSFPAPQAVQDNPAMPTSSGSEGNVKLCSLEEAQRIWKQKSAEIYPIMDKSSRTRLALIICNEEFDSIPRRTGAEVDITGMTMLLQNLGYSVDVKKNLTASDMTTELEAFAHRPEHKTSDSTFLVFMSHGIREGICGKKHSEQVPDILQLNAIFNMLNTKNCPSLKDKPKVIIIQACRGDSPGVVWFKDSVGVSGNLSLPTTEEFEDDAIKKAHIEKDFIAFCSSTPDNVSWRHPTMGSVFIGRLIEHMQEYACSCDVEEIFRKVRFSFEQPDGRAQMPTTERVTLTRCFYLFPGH
More on the design: species or system Escherichia coli.

Data set [6] addresses Mitogen-activated protein kinase 1 (Homo sapiens, UniProt P28482). Nature of the data set: DRUGMATRIX: Protein Serine/Threonine Kinase, ERK2 enzyme inhibition (substrate: Myelin Basic Protein). More on the design: species or system Escherichia coli. Conditions: Not Active = under 50% inhibition at 10 µM.

Matrix metalloproteinase-9, sequence (P14780 whole entry): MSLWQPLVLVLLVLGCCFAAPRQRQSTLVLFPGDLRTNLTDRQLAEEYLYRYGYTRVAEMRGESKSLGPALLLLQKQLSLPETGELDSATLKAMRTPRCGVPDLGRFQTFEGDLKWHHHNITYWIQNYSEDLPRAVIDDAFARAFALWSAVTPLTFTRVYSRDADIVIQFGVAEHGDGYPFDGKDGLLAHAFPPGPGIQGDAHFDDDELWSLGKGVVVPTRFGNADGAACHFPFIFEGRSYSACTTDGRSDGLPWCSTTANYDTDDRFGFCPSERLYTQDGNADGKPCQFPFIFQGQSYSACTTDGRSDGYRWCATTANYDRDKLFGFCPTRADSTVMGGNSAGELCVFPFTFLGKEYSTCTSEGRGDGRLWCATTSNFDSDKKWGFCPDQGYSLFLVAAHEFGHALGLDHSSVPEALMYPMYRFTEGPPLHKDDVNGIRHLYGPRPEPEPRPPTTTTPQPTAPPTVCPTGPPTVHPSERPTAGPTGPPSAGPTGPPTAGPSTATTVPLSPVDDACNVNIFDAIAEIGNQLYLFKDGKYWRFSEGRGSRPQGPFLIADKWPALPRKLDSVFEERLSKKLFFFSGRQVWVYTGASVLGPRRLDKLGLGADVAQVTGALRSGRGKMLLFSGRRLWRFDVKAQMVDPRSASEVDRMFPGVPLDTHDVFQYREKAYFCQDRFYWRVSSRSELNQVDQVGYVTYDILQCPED
Mitogen-activated protein kinase 1, sequence (P28482 whole entry): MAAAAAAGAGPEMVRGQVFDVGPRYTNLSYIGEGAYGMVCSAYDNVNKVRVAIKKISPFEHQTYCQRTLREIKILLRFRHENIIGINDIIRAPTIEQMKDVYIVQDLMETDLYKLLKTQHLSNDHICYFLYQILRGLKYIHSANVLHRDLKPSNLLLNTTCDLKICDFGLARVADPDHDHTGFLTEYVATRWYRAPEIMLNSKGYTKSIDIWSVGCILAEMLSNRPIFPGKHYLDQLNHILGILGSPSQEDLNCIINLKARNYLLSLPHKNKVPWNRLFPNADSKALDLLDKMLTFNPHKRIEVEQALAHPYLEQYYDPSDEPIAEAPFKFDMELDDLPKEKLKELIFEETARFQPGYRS
C-C chemokine receptor type 5, sequence (P51681 whole entry): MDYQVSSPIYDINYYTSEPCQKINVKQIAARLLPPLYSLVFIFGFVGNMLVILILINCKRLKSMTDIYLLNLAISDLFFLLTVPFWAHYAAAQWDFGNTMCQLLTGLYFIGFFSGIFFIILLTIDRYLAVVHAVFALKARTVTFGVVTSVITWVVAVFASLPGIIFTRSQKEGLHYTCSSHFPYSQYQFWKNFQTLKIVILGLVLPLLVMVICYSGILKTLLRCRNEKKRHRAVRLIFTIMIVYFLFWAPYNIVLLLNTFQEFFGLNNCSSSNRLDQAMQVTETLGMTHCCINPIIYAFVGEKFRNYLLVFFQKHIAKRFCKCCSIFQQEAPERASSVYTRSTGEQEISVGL

On to `Nc1nc(N)c2nc(CNc3ccc(C(=O)N[C@@H](CCC(=O)O)C(=O)O)cc3)cnc2n1` [AMINOPTERIN], for which the IC50 result (in data set [1]; in data set [2]; on Cytochrome P450 2A6; in data set [3]; in data set [4]; in data set [5]) was “Not Active” each time. Further, the half-maximal inhibitory concentration (IC50) entry (on Caspase-1; in data set [6]) was “Not Active” each time. Also, the Ki entry (in data set [2]; on Cytochrome P450 2A6; in data set [3]) was “Not Active” in each case.
Consider `Cc1c(N)nc([C@H](CC(N)=O)NC[C@H](N)C(N)=O)nc1C(=O)N[C@H](C(=O)N[C@H](C)[C@@H](O)[C@H](C)C(=O)N[C@H](C(=O)NCCc1nc(-c2nc(C(=O)NCCC[S+](C)C)cs2)cs1)[C@@H](C)O)[C@@H](O[C@@H]1O[C@@H](CO)[C@@H](O)[C@H](O)[C@@H]1O[C@H]1O[C@H](CO)[C@@H](O)[C@H](OC(N)=O)[C@@H]1O)c1c[nH]cn1.[Br-]` [BLEOMYCIN A2], for which the IC50 entry (in data set [1]; in data set [2]; against Cytochrome P450 2A6; in data set [3]; in data set [4]; in data set [5]) was “Not Active” in each case. The IC50 result (on Caspase-1; in data set [6]) was “Not Active” each time. Further, the Ki entry (in data set [2]; on Cytochrome P450 2A6; in data set [3]) was “Not Active” each time.
On to `OC[C@H]1O[C@@H]2O[C@H]3[C@H](O)[C@@H](O)[C@@H](O[C@H]4[C@H](O)[C@@H](O)[C@@H](O[C@H]5[C@H](O)[C@@H](O)[C@@H](O[C@H]6[C@H](O)[C@@H](O)[C@@H](O[C@H]7[C@H](O)[C@@H](O)[C@@H](O[C@H]1[C@H](O)[C@H]2O)O[C@@H]7CO)O[C@@H]6CO)O[C@@H]5CO)O[C@@H]4CO)O[C@@H]3CO` [ALFADEX], for which the concentration for half-maximal inhibition (IC50) result (in data set [1]; in data set [2]; against Cytochrome P450 2A6; in data set [3]; in data set [4]; in data set [5]) was “Not Active” each time. In addition, the 50% inhibitory concentration (IC50) result (at Caspase-1; in data set [6]) was “Not Active” each time. The Ki result (in data set [2]; on Cytochrome P450 2A6; in data set [3]) was “Not Active” each time.
As to `O=C(Nc1ccc(Cl)c(Cl)c1)c1cc(Cl)cc(Cl)c1O` [3,3',4',5-TETRACHLOROSALICYLANILIDE], the IC50 entry (in data set [1]; in data set [2]; on Cytochrome P450 2A6; in data set [3]; in data set [4]; in data set [5]) was “Not Active” in each case. Besides, the concentration for half-maximal inhibition (IC50) entry was “Not Active” on Caspase-1 and 886 nM in data set [6] (read-out: IC50). Also, the Ki result (in data set [2]; on Cytochrome P450 2A6; in data set [3]) was “Not Active” in each case.
Take `COC(=O)Nc1nc2ccc(Sc3ccccc3)cc2[nH]1` [FENBENDAZOLE]: the concentration for half-maximal inhibition (IC50) entry in data set [1] was “Not Active”; in data set [2] (read-out: IC50) it was 5.99 µM; at Cytochrome P450 2A6, “Not Active”; in data set [3] it was “Not Active”; in data set [4], “Not Active”; in data set [5] it was “Not Active”. For the same compound, the IC50 entry (against Caspase-1; in data set [6]) was “Not Active” throughout. Besides, the Ki result (on Cytochrome P450 2A6; in data set [3]) was “Not Active” throughout.
For `Nc1ccc(C(=O)O)c(O)c1` [AMINOSALICYLIC ACID], the IC50 entry (in data set [1]; in data set [2]; at Cytochrome P450 2A6; in data set [3]; in data set [4]; in data set [5]) was “Not Active” each time. Also, the 50% inhibitory concentration (IC50) entry (on Caspase-1; in data set [6]) was “Not Active” each time. Besides, the Ki result (in data set [2]; on Cytochrome P450 2A6; in data set [3]) was “Not Active” throughout.
As to `COC(=O)C[C@](O)(CCC(C)(C)O)C(=O)O[C@@H]1C(OC)=C[C@]23CCCN2CCc2cc4c(cc2[C@H]13)OCO4` [HARRINGTONINE], the IC50 entry (in data set [1]; in data set [2]; against Cytochrome P450 2A6; in data set [3]; in data set [4]; in data set [5]) was “Not Active” in each case. For the same compound, the IC50 entry (on Caspase-1; in data set [6]) was “Not Active” in each case. The Ki result (in data set [2]; at Cytochrome P450 2A6; in data set [3]) was “Not Active” in each case.
With `COc1cc(NC(C)CCCN)c2ncccc2c1` (stereo not given) [PRIMAQUINE], the IC50 entry (in data set [1]; in data set [2]; on Cytochrome P450 2A6; in data set [3]; in data set [4]; in data set [5]) was “Not Active” each time. In addition, the concentration for half-maximal inhibition (IC50) result (against Caspase-1; in data set [6]) was “Not Active” each time. Also, the Ki entry (in data set [2]; on Cytochrome P450 2A6; in data set [3]) was “Not Active” each time.
Consider `OC[C@H]1O[C@@H]2O[C@H]3[C@H](O)[C@@H](O)[C@@H](O[C@H]4[C@H](O)[C@@H](O)[C@@H](O[C@H]5[C@H](O)[C@@H](O)[C@@H](O[C@H]6[C@H](O)[C@@H](O)[C@@H](O[C@H]7[C@H](O)[C@@H](O)[C@@H](O[C@H]8[C@H](O)[C@@H](O)[C@@H](O[C@H]1[C@H](O)[C@H]2O)O[C@@H]8CO)O[C@@H]7CO)O[C@@H]6CO)O[C@@H]5CO)O[C@@H]4CO)O[C@@H]3CO` [BETADEX], for which the IC50 entry (in data set [1]; in data set [2]; at Cytochrome P450 2A6; in data set [3]; in data set [4]; in data set [5]) was “Not Active” in each case. In addition, the IC50 result (against Caspase-1; in data set [6]) was “Not Active” each time. Besides, the Ki result (in data set [2]; at Cytochrome P450 2A6; in data set [3]) was “Not Active” in each case.
As for `COc1cc([C@@H]2c3cc4c(cc3[C@H](O)[C@H]3COC(=O)[C@H]23)OCO4)cc(OC)c1OC` [PODOFILOX], the IC50 entry (in data set [1]; in data set [2]; on Cytochrome P450 2A6; in data set [3]; in data set [4]; in data set [5]) was “Not Active” in each case. Moreover, the half-maximal inhibitory concentration (IC50) entry (at Caspase-1; in data set [6]) was “Not Active” each time. Also, the Ki entry (in data set [2]; on Cytochrome P450 2A6; in data set [3]) was “Not Active” in each case.
With `C[C@H]1C[C@H]2[C@@H]3CCC4=CC(=O)C=C[C@]4(C)[C@@]3(F)[C@@H](O)C[C@]2(C)[C@@]1(O)C(=O)CO` [BETAMETHASONE], the IC50 entry (in data set [1]; in data set [2]; against Cytochrome P450 2A6; in data set [3]; in data set [4]; in data set [5]) was “Not Active” throughout. Moreover, the IC50 result (on Caspase-1; in data set [6]) was “Not Active” in each case. The Ki result (in data set [2]; at Cytochrome P450 2A6; in data set [3]) was “Not Active” throughout.
With CARBOXYMETHYLCELLULOSE, the concentration for half-maximal inhibition (IC50) entry (in data set [1]; in data set [2]; against Cytochrome P450 2A6; in data set [3]; in data set [4]; in data set [5]) was “Not Active” in each case. Further, the values for the IC50 result (at Caspase-1; in data set [6] (read-out: IC50)) were “Not Active” and 216 nM, respectively. The Ki entry (in data set [1]; in data set [2]; at Cytochrome P450 2A6; in data set [3]; in data set [4]; in data set [5]) was “Not Active” each time. For the same compound, at Caspase-1, the Ki entry was “Not Active”.
